In ChEMBL document CHEMBL5385961, “In vitro and in vivo evaluation of novel chromeno[2,3-d]pyrimidinones as therapeutic agents for triple negative breast cancer” (RSC Med Chem, 2024):
Activity calls are given as the source filed them. No cut-off for these calls is given here.

Tests used:
[1] = test system: MCF7; test: Cytotoxicity against human MCF7 cells assessed as cell viability at 30 uM incubated for 72 hrs by SRB assay relative to control; assay type: functional; conditions: read-out: Activity
[2] = test system: Hs-578T; test: Induction of apoptosis in human Hs-578T cells assessed as increase in caspase-8 protein expression at IC50 measured after 48 hrs by Western blot analysis; assay type: functional, cell-based
[3] = test system: MDA-MB-231; test: Cytotoxicity against human MDA-MB-231 cells assessed as cell viability at 30 uM incubated for 72 hrs by SRB assay relative to control; assay type: functional; conditions: read-out: Activity
[4] = test system: Hs-578T; test: Induction of apoptosis in human Hs-578T cells assessed as increase in cleaved PARP level at IC50 measured after 48 hrs by Western blot analysis; assay type: functional, cell-based
[5] = test system: Hs-578T; test: Induction of apoptosis in human Hs-578T cells assessed as increase in caspase-8 protein expression at IC50 measured after 24 hrs by Western blot analysis; assay type: functional, cell-based
[6] = test system: Hs-578T; test: Cytotoxicity against human Hs-578T cells assessed as reduction in cell viability at 10 uM incubated for 72 hrs by SRB assay relative to control; assay type: functional
[7] = organism: Homo sapiens; test: Selectivity index, ratio of IC50 for human MCF-10A cells to IC50 for human Hs-578T cells
[8] = test system: Hs-578T; test: Induction of apoptosis in human Hs-578T cells assessed as increase in caspase-9 protein expression at IC50 measured after 24 to 48 hrs by Western blot analysis; assay type: functional, cell-based; conditions: time 24-48 hrs
[9] = Cytotoxicity against human MCF-10A cells assessed as inhibition of cell growth incubated for 72 hrs by SRB assay; assay type: toxicity, cell-based
[10] = test system: MDA-MB-231; test: Cytotoxicity against human MDA-MB-231 cells assessed as cell viability at 10 uM incubated for 72 hrs by SRB assay relative to control; assay type: functional; conditions: read-out: Activity
[11] = test system: Hs-578T; test: Induction of apoptosis in human Hs-578T cells assessed as increase in BAD protein expression at IC50 measured after 24 to 48 hrs by Western blot analysis; assay type: functional, cell-based; conditions: time 24-48 hrs
[12] = test system: Hs-578T; test: Cytotoxicity against human Hs-578T cells assessed as cell viability at 30 uM incubated for 72 hrs by SRB assay relative to control; assay type: functional; conditions: read-out: Activity
[13] = test system: Hs-578T; test: Cytotoxicity against human Hs-578T cells assessed as inhibition of cell growth incubated for 72 hrs by SRB assay; assay type: functional, cell-based
[14] = test system: Hs-578T; test: Induction of apoptosis in human Hs-578T cells assessed as increase in BID protein expression at IC50 measured after 24 to 48 hrs by Western blot analysis; assay type: functional, cell-based; conditions: time 24-48 hrs
[15] = test system: Hs-578T; test: Cytotoxicity against human Hs-578T cells assessed as cell viability at 10 uM incubated for 72 hrs by SRB assay relative to control; assay type: functional; conditions: read-out: Activity
[16] = test system: MCF7; test: Cytotoxicity against human MCF7 cells assessed as cell viability at 10 uM incubated for 72 hrs by SRB assay relative to control; assay type: functional; conditions: read-out: Activity
[17] = Toxicity in wild type Caenorhabditis elegans N2 assessed as effect on food consumption at 0.0001 to 50 uM measured daily for 7 days by food clearance assay; conditions: 168 h, dose 0.0001-50 µM, time 7 day
[18] = test system: Hs-578T; test: Antitumor activity against human Hs-578T cells implanted in chick eggs assessed as tumor growth regression at 2 times IC50 administered starting from day 13 and measured 17 days post embryo development by stereomicroscopic analysis; assay type: functional, cell-based; conditions: time 5.0 day
[19] = test system: Hs-578T; test: Induction of cell cycle arrest in human Hs-578T cells assessed as accumulation of cells at G2/M phase at IC50 measured after 24 hrs by RNase/PI staining based flow cytometry analysis; assay type: functional
[20] = test system: Hs-578T; test: Induction of apoptosis in human Hs-578T cells assessed as increase in early apoptotic cells at IC50 measured after 24 to 48 hrs by Annexin V-FITC/PI staining based flow cytometry analysis; assay type: functional, cell-based; conditions: time 24-48 hrs
[21] = test system: Hs-578T; test: Induction of cell cycle arrest in human Hs-578T cells assessed as accumulation of cells at S phase at IC50 measured after 24 hrs by RNase/PI staining based flow cytometry analysis; assay type: functional
[22] = test system: Hs-578T; test: Induction of cell cycle arrest in human Hs-578T cells assessed as reduction in G0/G1 cell population at IC50 measured after 24 to 48 hrs by RNase/PI staining based flow cytometry analysis; assay type: functional; conditions: time 24-48 hrs
[23] = test system: Hs-578T; test: Induction of apoptosis in human Hs-578T cells assessed as reduction in viable cells at IC50 measured after 24 to 48 hrs by Annexin V-FITC/PI staining based flow cytometry analysis; assay type: functional, cell-based; conditions: time 24-48 hrs
[24] = test system: Hs-578T; test: Induction of cell cycle arrest in human Hs-578T cells assessed as accumulation of cells at S phase at IC50 measured after 48 hrs by RNase/PI staining based flow cytometry analysis; assay type: functional
[25] = test system: Hs-578T; test: Cytotoxicity against human Hs-578T cells assessed as reduction in cell proliferation at 0.5 times IC50 measured after 48 hrs by BrdU incorporation assay relative to control; assay type: functional; design: scale not given: the % may be the effect or the level left
[26] = test system: Hs-578T; test: Cytotoxicity against human Hs-578T cells assessed as reduction in cell proliferation at 0.5 times IC50 measured after 24 hrs by BrdU incorporation assay relative to control; assay type: functional; design: scale not given: the % may be the effect or the level left
[27] = test system: Hs-578T; test: Induction of apoptosis in human Hs-578T cells assessed as increase in late apoptotic cells at IC50 measured after 24 hrs by Annexin V-FITC/PI staining based flow cytometry analysis; assay type: functional, cell-based
[28] = test system: Hs-578T; test: Cytotoxicity against human Hs-578T cells assessed as reduction in cell proliferation at IC50 measured after 48 hrs by BrdU incorporation assay relative to control; assay type: functional; design: scale not given: the % may be the effect or the level left
[29] = Toxicity in wild type Caenorhabditis elegans N2 assessed as drug tolerance at 0.0001 to 50 uM; conditions: dose 0.0001-50 µM
[30] = test system: Hs-578T; test: Induction of apoptosis in human Hs-578T cells assessed as increase in cleaved PARP level at IC50 measured after 24 to 48 hrs by Western blot analysis; assay type: functional, cell-based; conditions: time 24-48 hrs
[31] = test system: Hs-578T; test: Cytotoxicity against human Hs-578T cells assessed as reduction in cell proliferation at IC50 measured after 24 hrs by BrdU incorporation assay relative to control; assay type: functional; design: scale not given: the % may be the effect or the level left
[32] = test system: Hs-578T; test: Antitumor activity against human Hs-578T cells implanted in chick eggs assessed as regression in tumors' perimeter at 2 times IC50 administered starting from day 13 and measured 17 days post embryo development by stereomicroscopic analysis relative to control; assay type: functional; conditions: time 5 day

Compound | viability at 30 µM [1] | Activity [2] | viability at 30 µM [3] | Activity [5] | Activity [6] | Ratio IC50 [7] | Activity [8] | IC50 at 72 h [9] | viability at 10 µM [10] | Activity [11] | viability at 30 µM [12] | IC50 [13] | Activity [14] | viability at 10 µM [15] | viability at 10 µM [16] | further results
COc1cccc2c1Oc1nc(-c3cc(C(C)(C)C)c(O)c(C(C)(C)C)c3)[nH]c(=O)c1C2 | 43.5% | inactive | 58.6% | Active | ~50% | > 5.61 | Active | > 60 µM | 68.1% | Active | 18.7% | 9.08 µM | Active | 30% | 59.8% | Activity [4]: Active
COc1cccc(-c2nc3c(c(=O)[nH]2)Cc2cc(Cl)ccc2O3)c1 | 35.4% | inactive | 18.4% | Active | ~50% | 0.06 | Active | 14 µM | 85.1% | Active | 33.9% | 13.1 µM | Active | 54.7% | 81.5% | –
COc1cccc2c1OC1=NC(c3ccc4c(c3)OCO4)NC(=O)C1=C2 (stereo not drawn) | 82.1% | – | 62.2% | – | – | – | – | – | 88.2% | – | 96.5% | – | – | 100% | 84.9% | –
COc1ccc2c(c1)Cc1c(nc(-c3cccc(Cl)c3)[nH]c1=O)O2 | 45.8% | – | 44.2% | – | – | – | – | – | 80.7% | – | 74.7% | – | – | 76% | 79.3% | –
O=c1[nH]c(-c2ccccc2)nc2c1Cc1ccccc1O2 | 79.2% | – | 53.2% | – | – | – | – | – | 69.3% | – | 65.4% | – | – | 76.3% | 88.5% | –
COc1cccc2c1Oc1nc(-c3cccc(Cl)c3)[nH]c(=O)c1C2 | 40.4% | – | 76.9% | – | – | – | – | – | 80.8% | – | 49.9% | – | – | 72% | 69.8% | –
COc1cccc2c1C(=O)c1c(O)c3c(c(O)c1C2=O)C[C@@](O)(C(=O)CO)C[C@@H]3O[C@H]1C[C@H](N)[C@H](O)[C@H](C)O1 [DOXORUBICIN] | 28.8% | – | 5.85% | – | – | – | – | – | 6.72% | – | 7.61% | – | – | 8.65% | 24.5% | –
O=c1[nH]c(-c2ccccc2)nc2c1Cc1cc(Br)ccc1O2 | 36.7% | inactive | 52.1% | Active | ~50% | > 12.3 | Active | > 60 µM | 62.4% | Active | 21.1% | 4.5 µM | Active | 40.2% | 39.2% | Activity [17]: Non-Toxic; Activity [18]: Active; Activity [19]: inactive; Activity [20]: Active; Activity [21]: inactive; Activity [22]: Active; Activity [23]: Active; Activity [24]: Active; Activity [25]: <=50%; Activity [26]: ~40%; Activity [27]: Active; Activity [28]: <=99%; Activity [29]: Non-Toxic; Activity [30]: Active; Activity [31]: ~70%; Activity [32]: 6.3%
COc1cc(OC)c(C2N=C3Oc4ccc(Br)cc4C=C3C(=O)N2)c(OC)c1 (stereo not drawn) | 76.2% | – | 64.4% | – | – | – | – | – | 80.6% | – | 68.6% | – | – | 95.2% | 90.6% | –
